Assay results from US20200157156A1, “GRATELOUPIA CHIANGII-DERIVED LECTIN AND LECTIN GENE CODING FOR THE SAME” (priority 2018, published 2020).
Counter-ions that a name gives are not always drawn.

Experiments:
in vitro = experiment: in vitro
Protocol: (§1) The antiviral effect was determined through cell viability, and the like using a virus-induced cytopathic effect (CPE) inhibition method and an MTT method.

[1] = system: herpes simplex virus 2 (HSV2) (MS); experiment: Antiviral effect, CPE inhibition / MTT, HSV2; type: cell-based
Protocol: as §1

[2] = system: herpes simplex virus 1 (HSV1) (F); experiment: Antiviral effect, CPE inhibition / MTT, HSV1; type: cell-based
Protocol: as §1

GCL [3] = experiment: Hemagglutination inhibition test (carbohydrate specificity of GCL); type: cell-based, Grateloupia chiangii; conditions: 4 haemagglutination activity units of GCL, equine red blood cells
Protocol: The carbohydrate specificity was determined by means of a hemagglutination inhibition test. Proteins and carbohydrates used for the inhibition test included D-glucose (D-Glc), D-mannose (D-Man), D-galactose (D-Gal), N-acetyl-D-glucosamine (GlcNAc), N-acetyl-D-galactosamine (GalNAc), D-fucose (F-Fuc), fructose (Fru), lactose (Lac), and fetuin. A sample (25 μL) having 4 haemagglutination activity units was mixed with each of the carbohydrates (25 μL), and 25 μL of a mixture was removed from each well. An equivalent amount of a 4% suspension of equine red blood cells was added to, and mixed with the sample. The plate was kept at room temperature for 30 minutes, and then confirmed for inhibitory activities.

GCL [4] = experiment: Glycan microarray (glycan-300 array) binding to GCL; design: species or system Grateloupia chiangii; conditions: 50 μg/mL biotinylated lectin; for RFU (Normalized) GCL: Cy3-streptavidin detection
Protocol: A glycan microarray was performed by Ebiogen (Korea). A glycan array kit was purchased from RayBioTech (Norcross, Ga., USA). An array consisting of 300 synthetic glycans printed in quadruplicate on a glass slide was used. Label-based detection was performed according to the manufacturer's protocol. 50 μg/mL of biotinylated lectin was put into wells, and gently shaken for 3 hours or more. The glass slide was washed with 1× washing buffers I and II provided in the kit. The glycan-lectin binding was detected by reacting with Cy3 equivalent dye-conjugated streptavidin at room temperature for an hour. Signals for Cy3 detection were visualized using a microarray laser scanner (Genfix 4100A, Molecular Devices, Sunnyvale, Calif., USA) (excitation at 554 nm, and emission at 568 nm). Data extraction was performed using microarray assay software Genfix. The […] array data was analyzed using RayBioTech (RayBioTech) software.
To determine the carbohydrate specificity, a glycan microarray was carried out using a glycan-300 array kit in which 300 different carbohydrates were immobilized. Referring to FIGS. 6 and 7 and Table 2 below, 18 of the 300 tested carbohydrates produced at least 1,000 positive signals. GCL produced weak binding signals to the monosaccharides, that is, β-Glc-sp, β-Gal-sp, and α-Man-sp. Normalized signal intensities were 2,579, 2,269, and 2,194, respectively. Also, the GCL was able to bind to maltotetraose-β-Sp1 with a signal intensity of 2,705. […] It was that high-mannan structures, that is, Man-α-1,6-(Man-α-1,3-), Man-α-1,6-(GlcNAc-β-1,2-Man-α-1,3-)Man-β-1,4-GlcNAc-β-1, and 4-GlcNAc-Sp5, interacted with the GCL.

fetuin = experiment: cell-based or functional assay
equine red blood cells = experiment: Hemagglutination assay, equine red blood cells; type: cell-based, horse
Protocol: (§2) For a hemagglutination assay, horse and sheep blood was purchased (Hanil Comed, Korea). The blood was washed with phosphate buffered saline (PBS, pH 7.3) until a red color of a supernatant disappeared. Each of red blood cells was prepared into a 4% suspension in PBS. The sample was serially diluted in a 96-well U-bottom plate, and a 4% suspension of red blood cells was then added to each well. The sample was kept at room temperature for 30 minutes, and then confirmed for agglutination activities.

[5] = Effect of divalent cations on GCL activity; conditions: presence of divalent cations (Mg2+ and Ca2+)
Protocol: (§3) The thermal stability of GCL was measured at different temperatures (ranging from 20 to 90° C.). The GCL activities were not affected until the temperature reached 30° C. […] FIG. 5 is a graph for analyzing a change in degree of activity of CGL according to divalent cations added.

ovine red blood cells = experiment: Hemagglutination assay, ovine red blood cells; type: cell-based, sheep; conditions: 4% suspension, room temperature, 30 minutes
Protocol: as §2

[6] = Thermal stability of GCL activity; type: physicochemical
Protocol: as §3

[7] = 4% suspension, room temperature, 30 minutes

## Nc1nc2c(ncn2COCCO)c(=O)[nH]1 [Acyclovir]
In vitro
  CC50: > 100 µg/mL
[1]
  Selective index HSV2 (MS): >35
[1]; Human alphaherpesvirus 2, footnote: concentration, μM
  EC50: 2.87 µM
[2]
  Selective index HSV1 (F): >192
[2]; Human alphaherpesvirus 1, footnote: concentration, μM
  EC50: 0.52 µM

## O=C[C@@H](O)[C@@H](O)[C@H](O)[C@H](O)CO [D-mannose]
GCL [3]
  Concentration inhibiting haemagglutination activity of GCL: 125 mM

## CN[C@@H]1[C@@H](O)[C@@H](O[C@@H]2[C@@H](O)[C@H](O[C@H]3OC(CN)=CC[C@H]3N)[C@@H](N)C[C@H]2N)OC[C@]1(C)O [G0056, Sisomicin Sulfate]
GCL [4]
  RFU (Normalized) GCL: 1,583 ± 177 RFU

## O=C(CO)[C@@H](O)[C@H](O)[C@H](O)CO [fructose]
GCL [3]
  Concentration inhibiting haemagglutination activity of GCL: 250 mM

## D-cellose-β-Sp1 [G0087]
GCL [4]
  RFU (Normalized) GCL: 1,165 ± 82 RFU

## Gal-α-1,4-Gal-β-1,4-Glc-β-Sp [G0018]
GCL [4]
  RFU (Normalized) GCL: 1,124 ± 47 RFU

## Gal-β-1,4-Glc-Sp [H0400]
GCL [4]
  RFU (Normalized) GCL: 1,044 ± 110 RFU

## Gal-β-1,4-Glc-β-Sp [G0016]
GCL [4]
  RFU (Normalized) GCL: 1,260 ± 126 RFU

## Glc-α-1,2-Gal-α-Sp [G0048]
GCL [4]
  RFU (Normalized) GCL: 1,173 ± 110 RFU

## Glc-α-1,4-Glc-β-Sp1 [G0076]
GCL [4]
  RFU (Normalized) GCL: 1,238 ± 28 RFU

## Grateloupia chiangii-derived lectin (GCL)
fetuin
  inhibition of haemagglutination activity of GCL (4 haemagglutination activity units, equine red blood cells): 195 µg/mL

## Maltoheptaose-β-Sp1 [G0083]
GCL [4]
  Binding of GCL to glycan: strongly bound
  RFU (Normalized) GCL: 8,132 ± 1,810 RFU

## Maltohexaose-β-Sp1 [G0082]
GCL [4]
  Binding of GCL to glycan: strongly bound
  RFU (Normalized) GCL: 7,524 ± 1,976 RFU

## Maltotetraose-β-Sp1 [G0080]
GCL [4]
  Normalized signal intensity: 2,705
  RFU (Normalized) GCL: 2,577 ± 351 RFU

## Man-α-1,6-(Man-α-1,3-)Man-α-1,6-(Gal-β-1,4-GlcNAc-β-1,2-Man-α-1,3-)Man-β-1,4-GlcNAc-β-1,4-GlcNAc-Sp5 [N-011]
GCL [4]
  RFU (Normalized) GCL: 1148 ± 173 RFU

## Man-α-1,6-(Man-α-1,3-)Man-α-1,6-(GlcNAc-β-1,2-Man-α-1,3-)Man-β-1,4-GlcNAc-β-1,4-GlcNAc-Sp5 [N-010]
GCL [4]
  RFU (Normalized) GCL: 1142 ± 116 RFU

## Man-α-1,6-(Man-α-1,3-)Man-α-1,6-[Gal-β-1,4-(Fuc-α-1,3-)GlcNAc-β-1,2-Man-α-1,3-]Man-β-1,4-GlcNAc-β-1,4-GlcNAc-Sp5 [N-014]
GCL [4]
  RFU (Normalized) GCL: 1129 ± 151 RFU

## dextran sulfate 8000
[1]
  Antiviral activity (EC50) HSV2 (MS): 4.52 µg/mL
[2]
  Antiviral activity (EC50) HSV1 (F): 15.54 µg/mL

## pentosan polysulfate [Penosan polysulfate]
In vitro
  Toxicity CC50: >100 µg/mL
[1]
  Antiviral activity (EC50) HSV2 (MS): 2.10 µg/mL
[2]
  Antiviral activity (EC50) HSV1 (F): 4.77 µg/mL

## α-Man-Sp [G0003]
GCL [4]
  Normalized signal intensity: 2,194
  RFU (Normalized) GCL: 2,093 ± 294 RFU

## β-Gal-Sp [G0002]
GCL [4]
  Normalized signal intensity: 2,269
  RFU (Normalized) GCL: 2,165 ± 237 RFU

## β-Glc-Sp [G0001]
GCL [4]
  Normalized signal intensity: 2,579
  RFU (Normalized) GCL: 2,273 ± 544 RFU

## β-GlcNAc-Sp [G0006]
GCL [4]
  RFU (Normalized) GCL: 1,104 ± 133 RFU

B1: GCL: lectin protein purified from red alga Grateloupia chiangii by D-mannose affinity chromatography, SEQ ID NO: 1, about 25 kDa (protein)
chain: MVVSNRLVSGESLHRGQHIISSDQHFMLVHQYDGNVVLYDVAGSGSGKPLWSTNTYGSHTTVFKMQEDSNLVLYATGGKPIWASDTHGSGGRFLEMQNDGNLVVYTDVGKPKWASDTHQGIAPRSEISVNQVLRIREGLHSANKRNELILQNDGNLVLSKNGSTAWSSGTAGTGANVLVLQIDGNLVLYNDTKSVWASGSMNKGGRTAVMQDDGNFVLYAEGGKPVWATNT
modifications: GLC
Equine red blood cells; [7]
  Agglutination of equine red blood cells: agglutinated
  Minimal concentration for agglutination of equine red blood cells: 0.8 µg/mL
Equine red blood cells; hemagglutination titer per mg protein
  Specific activity (Titer/mg): 51,200 Titer/mg
Equine red blood cells; hemagglutination titer, purification step from 30 g sample
  Total activity (Titer): 33,280 Titer
[5]
  Change in activity by divalent cations: not highly affected
In vitro
  Toxicity CC50: >5 µg/mL
[1]
  Antiviral activity (EC50) HSV2 (MS): 0.036 µg/mL
Ovine red blood cells
  Agglutination of ovine red blood cells: did not agglutinate
[2]
  Antiviral activity (EC50) HSV1 (F): 0.18 µg/mL
[6]; at 40° C.
  GCL activity according to temperature: Half of the activities were lost
[6]; heated at 90° C. for 30 minutes
  Initial activities maintained: approximately 15%
[6]; until the temperature reached 30° C.
  GCL activity according to temperature: not affected

B2: fetuin (protein, UniProt P12763 19-359, looked up)
Alpha-2-HS-glycoprotein: IPLDPVAGYKEPACDDPDTEQAALAAVDYINKHLPRGYKHTLNQIDSVKVWPRRPTGEVYDIEIDTLETTCHVLDPTPLANCSVRQQTQHAVEGDCDIHVLKQDGQFSVLFTKCDSSPDSAEDVRKLCPDCPLLAPLNDSRVVHAVEVALATFNAESNGSYLQLVEISRAQFVPLPVSVSVEFAVAATDCIAKEVVDPTKCNLLAEKQYGFCKGSVIQKALGGEDVRVTCTLFQTQPVIPQPQPDGAEAEAPSAVPDAAGPTPSAAGPPVASVVVGPSVVAVPLPLHRAHYDLRHTFSGVASVESSSGEAFHVGKTPIVGQPSIPGGPVRLCPGRIRYFKI
GCL [3]
  Concentration inhibiting haemagglutination activity of GCL: 195 µg/mL
